According to patent US7455996B2, “Soybean raffinose synthase and a method for producing raffinose” (priority 1996, dated 2008):

B1: raffinose synthase: raffinose synthase purified from cucumber leaf vein tissues, amino acid sequence SEQ ID NO: 5 (protein, listed as Cucumis sativus)
chain: MAPSFKNGGSNVVSFDGLNDMSSPFAIDGSDFTVNGHSFLSDVPENIVASPSPYTSIDKSPVSVGCFVGFDASEPDSRHVVSIGKLKDIRFMSIFRFKVWWTTHWVGRNGGDLESETQIVILEKSDSGRPYVFLLPIVEGPFRTSIQPGDDDFVDVCVESGSSKVVDASFRSMLYLHAGDDPFALVKEAMKIVRTHLGTFRLLEEKTPPGIVDKFGWCTWDAFYLTVHPQGVIEGVRHLVDGGCPPGLVLIDDGWQSIGHDSDPITKEGMNQTVAGEQMPCRLLKFQENYKFRDYVNPKATGPRAGQKGMKAFIDELKGEFKTVEHVYVWHALCGYWGGLRPQVPGLPEARVIQPVLSPGLQMTMEDLAVDKIVLHKVGLVPPEKAEEMYEGLHAHLEKVGIDGVKIDVIHLLEMLCEDYGGRVDLAKAYYKAMTKSINKHFKGNGVIASMEHCNDFMFLGTEAISLGRVGDDFWCTDPSGDPNGTFWLQGCHMVHCANDSLWMGNFIHPDWDMFQSTHPCAAFHAASRAISGGPIYVSDSVGKHNFDLLKKLVLPDGSILRSEYYALPTRDCLFEDPLHNGETMLKIWNLNKFTGVIGAFNCQGGGWCRETRRNQCFSQYSKRVTSKTNPKDIEWHSGENPISIEGVKTFALYLYQAKKLILSKPSQDLDIALDPFEFELITVSPVTKLIQTSLHFAPIGLVNMLNTSGAIQSVDYDDDLSSVEIGVKGCGEMRVFASKKPRACRIDGEDVGFKYDQDQMVVVQVPWPIDSSSGGISVIEYLF

Key:
raffinose synthase [1] = assay: raffinose synthase activity with enzyme inhibitors or metal ions added; format: biochemical, cucumber; settings: final concentration of 1 mM; for Remaining activity (%): with respect to activity when neither inhibitor nor metal ion was added
Procedure: (§1) The activity of the raffinose synthase was measured by quantitatively determining raffinose produced by the raffinose synthesis reaction by using HPLC (high-performance liquid chromatography). HPLC was performed by using Sugar Analysis System DX500 (CarboPac PA1column, pulsed amperometry detector (produced by DIONEX)).
(§2) For the raffinose synthesis reaction, to a reaction solution prepared to have a composition having the following final concentrations, 10 to 50 μl of a raffinose synthase solution was added to give a volume of 100 μl followed by performing the reaction at 32° C. for 60 minutes.
(§3) After performing the reaction as described above, the reaction was stopped by adding to the reaction solution, ethanol in a volume four times the volume of the reaction solution and heating the solution at 95° C. for 30 seconds. The obtained solution was centrifuged to obtain a supernatant and the supernatant was then dried up under a reduced pressure. After that, an obtained residue was dissolved in distilled water. Raffinose in the reaction product was quantitatively determined by using the sugar analysis system to estimate the raffinose synthase activity.
Various enzyme inhibitors or metal ions were added to the reaction solution of the purified raffinose synthase to give a final concentration of 1 mM respectively, and the raffinose synthase activity was measured in the same manner as described above.

raffinose synthase [2] = assay: inhibition of raffinose synthase activity by myo-inositol; format: biochemical, cucumber; settings: myo-inositol added at various concentrations (FIG. 5)
Procedure: as §1, §2, §3
Investigation was made for inhibition by myo-inositol as the reaction product of the raffinose synthesis reaction. To the reaction solution, myo-inositol was added at various concentrations, and the raffinose synthase activity was measured. […]

[3] = stable temperature of raffinose synthase; format: physicochemical, cucumber; settings: fraction from anion exchange chromatography (2); 60 minutes at 28° C. to 40° C., pH 7
Procedure: The raffinose synthase fraction obtained by the anion exchange chromatography (2) described above was incubated in 20 mM Tris-HCl buffer (pH 7, containing 0.5 mM DTT) for 60 minutes at 28° C., 32° C., 37° C., or 40° C., and then the raffinose synthase activity was measured.

[4] = optimum reaction temperature of raffinose synthase; format: biochemical, cucumber; settings: measured at 28 to 52° C.
Procedure: as §1, §2, §3
The raffinose synthase activity was measured under various temperature conditions (28° C., 32° C., 36° C., 40° C., 44° C., 48° C., and 52° C.) in accordance with the method for measuring the raffinose synthase activity described above. […]

[5] = optimum reaction pH of raffinose synthase; format: biochemical, cucumber; settings: pH 4 to 11, various buffers
Procedure: as §1, §2, §3
The raffinose synthase activity was measured under various pH conditions (pH 4 to 11) in accordance with the method for measuring the raffinose synthase activity described above. […]

[6] = stable pH of raffinose synthase; format: physicochemical, cucumber; settings: fraction from anion exchange chromatography (2); incubated 4 hours at 4° C.
Procedure: The raffinose synthase fraction obtained by the anion exchange chromatography (2) described above was incubated for 4 hours at 4° C. in 50 mM Bis-Tris-HCl buffer (pH 5 to 8.0, containing 0.5 mM DTT) or 20 mM Tris-HCl buffer (pH 7 to 8.0, containing 0.5 mM DTT), and then the raffinose synthase activity was measured. […] The raffinose synthase activity was confirmed after the incubation under any of the incubation conditions. Especially, the enzyme was stable in a range of pH 5 to 7.5.

[7] = raffinose synthase activity of purification fractions (HPLC determination of raffinose); format: biochemical, cucumber; settings: purified active fraction after hydroxyapatite rechromatography
Procedure: as §1, §2, §3
The amount of protein contained in the active fraction was about 200 μg. The total activity was 5700 nmol/hour, and the specific activity per protein was about 28 μmol/hour/mg. […]

Molecule | inhibiting effect on the enzyme activity (raffinose synthase [1]) | Remaining activity (%) (raffinose synthase [1]) | further results
[Cl-].[Cl-].[Mg+2] [MgCl2] | scarcely observed | 96 | –
NC(=O)CI [Iodoacetoamide, Iodoacetamide] | remarkably inhibited | 0 | –
[Ca+2].[Cl-].[Cl-] [CaCl2] | scarcely observed | 115 | –
[Cl][Mn][Cl] [MnCl2] | exhibited the inhibiting effect | 32 | –
[Cl][Cu][Cl] [CuCl2] | scarcely observed | 101 | –
[Cl][Ni][Cl] [NiCl2] | exhibited the inhibiting effect | 68 | –
[Cl-].[Cl-].[Zn+2] [ZnCl2] | exhibited the inhibiting effect | 42 | –
O[C@H]1[C@H](O)[C@@H](O)[C@H](O)[C@@H](O)[C@H]1O [myo-inositol] | – | – | inhibition of the enzyme activity by myo-inositol (raffinose synthase [2]): inhibited
CCN1C(=O)C=CC1=O [N-ethylmaleimide] | remarkably inhibited | 40 | –
B1 | – | – | activity after incubation relative to non-incubated control [3]: 80% to 100; optimum reaction temperature [4]: 35 to 40 °C; temperature range in which activity was exhibited [4]: 25 to 42 °C; optimum reaction pH [5]: 6 to 8 pH; pH range in which activity was exhibited [5]: 5 to 10 pH; stable pH range [6]: 5 to 7.5 pH; specific activity per protein [7]: about 28 μmol/hour/mg
